System: patients with type 2 diabetes at high vascular risk
Experiment: Cardiovascular and Renal Outcomes Trial: linagliptin 5 mg once daily vs placebo on top of standard of care
Format: in vivo
Conditions: for 3P-MACE: hazard ratio (95% CI) vs placebo: Cox regression
Procedure: The effect of linagliptin on cardiovascular risk in adult patients with type 2 diabetes mellitus and with increased CV risk evidenced by a history of established macrovascular or renal disease (e.g. as defined herein) was evaluated in a multi-center, multi-national, randomized, double-blind parallel group trial. The trial compared the risk of experiencing a major adverse cardiovascular event (MACE) between linagliptin and placebo when these were added to and used concomitantly with standard of care treatments for diabetes (HbA1c), cardiovascular risk factors and renal disease.
The primary endpoint in this trial was the time to first occurrence of three point (3P) MACE. A major adverse cardiac event was defined as a cardiovascular death or a nonfatal myocardial infarction (MI) or a nonfatal stroke. The statistical analysis plan tested for non-inferiority for the occurrence of (3P) MACE. […] The secondary endpoint was a renal composite, defined as renal death or sustained end stage renal disease or sustained decrease of 40% or more in eGFR.
Type 2 diabetes patient with insufficient glycemic control (naïve or pre-treated with any antidiabetic background medication, excluding treatment with GLP-1 receptor agonists, DPP-4inhibitors or SGLT-2 inhibitors if ≥consecutive 7 days, e.g. having HbA1c 6.5-10%), and high risk of cardiovascular events, e.g. defined by: • albuminuria (micro or macro) and previous macrovascular disease: e.g. defined according to Condition I as indicated below; • and/or • impaired renal function: e.g. as defined according to Condition II as indicated below;
Background and aims: People with type 2 diabetes (T2D) are at increased risk for hospitalization for heart failure (hHF), particularly in the setting of concomitant cardiovascular (CV) and/or kidney disease. […] Here we present analyses of HF outcomes with the DPP-4 inhibitor linagliptin (LINA) vs. placebo (PBO) from a Cardiovascular and Renal Outcomes Trial assessing cardiovascular safety and renal microvascular outcome in patients with type 2 diabetes at high vascular risk, a large CV outcomes trial that enrolled participants with T2D at high risk for hHF due to concomitant CV and/or chronic kidney disease. Materials and methods: People with T2D and concomitant CV and/or kidney disease were randomized to receive LINA 5 mg, or PBO once daily (1:1), on top of standard of care. All hHF, CV outcomes, and deaths were centrally adjudicated, with individual and composite HF-related outcomes analyses comparing LINA vs. placebo. Investigator-reported HF-related adverse events, whether or not confirmed by adjudication, were also analyzed. A Cox proportional hazards model adjusting for region and history of HF was used for analyses of first events. Recurrent hHF events were analyzed using a negative binomial model.
Methods: The present Cardiovascular and Renal Outcomes Trial randomized people with T2D and i) concomitant CV disease with UACR >30 mg/g or ii) prevalent CKD (i.e. GFR <45 ml/min/1.73m2 and/or UACR >200 mg/g) to receive the DPP-4 inhibitor linagliptin (5 mg) or placebo once daily in a double-blind fashion. The primary CV endpoint was 3P-MACE, with a key secondary kidney endpoint (adjudicated ESKD, renal death, or sustained ≥40% decrease in eGFR from baseline) and other renal outcomes (including albuminuria and eGFR slope) also assessed. Subgroups were assessed by baseline kidney function (eGFR ≥/<45 ml/min/1.73m2and eGFR ≥/<30, 45 or 60 ml/min/1.73m2).
Adults with type 2 diabetes, HbA1c 6.5-10.0% inclusive, and high CV risk were eligible for inclusion. […] Macrovascular disease eligibility criteria was based on documented and confirmed history of myocardial infarction, coronary artery disease, stroke, carotid artery disease, or peripheral artery disease. Participants with end-stage kidney disease (ESKD), defined as eGFR <15 or requiring maintenance dialysis, were excluded.

[1] = all patients, listed as Lingagliptin
[2] = all patients, listed as linagliptin
[3] = both, human, in vivo, 5 mg, 1.9 years
[4] = eGFR ≥30 to <45 mL/min/1.73 m^2

CC#CCn1c(N2CCC[C@@H](N)C2)nc2c1c(=O)n(Cc1nc(C)c3ccccc3n1)c(=O)n2C [Linagliptin, 1-[(4-methyl-quinazolin-2-yl)methyl]-3-methyl-7-(2-butyn-1-yl)-8-(3-(R)-amino-piperidin-1-yl)-xanthine]
3P-MACE: rate/100 patient-years (all patients): 4.69 per 100 patient-years
All-cause death: rate per 100 person-years (all patients): 4.69 per 100 person-years
All-cause mortality: incidence rate per 1000 PY (all patients): 46.9 per 1000 patient years
All-cause mortality: number of subjects (all patients): 367
Hospitalization for heart failure: incidence rate/1000 patient-years (all patients): 27.7 per 1000 patient years
Hospitalization for heart failure: number of patients (all patients): 209
Hospitalization for heart failure: rate/100 patient-years (all patients): 2.77 per 100 patient-years
Renal composite (40% eGFR): incidence rate per 1000 PY (all patients): 48.9 per 1000 patient years
Renal composite (40% eGFR): rate/100 patient-years (all patients): 4.89 per 100 patient-years
Renal composite (renal death, sustained ESRD, sustained decrease of 40% or more in eGFR): number of subjects (all patients): 327
Renal death or sustained ESKD: number of patients (all patients): 136
Renal death or sustained ESKD: patients, % (all patients): (3.9) %
Renal death or sustained ESKD: rate/1000 patient-years (all patients): 17.8 per 1000 patient years
Renal death, or sustained ESKD: rate/100 patient-years (all patients): 1.78 per 100 patient-years
Renal death, sustained ESKD, or sustained ≥ doubling of se-creatinine from baseline: n (all patients): 219
Renal death, sustained ESKD, or ≥ doubling of se-creatinine: % (all patients): (6.3) %
Renal death, sustained ESKD, or ≥ doubling of se-creatinine: rate/100 patient-years (all patients): 3.21 per 100 patient-years
3P-MACE: hazard ratio (95% CI) vs placebo (all patients): 1.02
3P-MACE: hazard ratio (95% CI) vs placebo [1]: 1.02 (0.89. 1.17)
3P-MACE (CV death, non-fatal MI, non-fatal stroke): number of subjects with event (all patients, n = 3494): 434
Hospitalization for heart failure: hazard ratio (95% CI) vs placebo (all patients, listed as LINA): 0.90
Renal composite (40% eGFR): hazard ratio (CI) vs placebo (all patients, listed as LINA): 1.04
3P-MACE: subjects with event, % [1]: 12.4%
Renal composite (40% eGFR): hazard ratio (CI) vs placebo [1]: 1.04 (0.89, 1.22)
Renal composite (40% eGFR): subjects, % [1]: 9.4%
3P-MACE: rate/100 patient-years [2]: 5.77 per 100 patient-years
3P-MACE: subjects with event, % [2]: 12.4%
All-cause mortality: hazard ratio (95% CI) vs placebo [2]: 0.98
All-cause mortality: subjects, % [2]: 10.5%
Hospitalization for heart failure: hazard ratio (95% CI) vs placebo [2]: 0.90
Hospitalization for heart failure: patients, % [2]: 6.0%
Renal composite (40% eGFR): hazard ratio (CI) vs placebo [2]: 1.04
Renal composite (40% eGFR): subjects, % [2]: 9.4%
Renal death or sustained ESKD: hazard ratio (95% CI) vs placebo [2]: 0.87
Renal death or sustained ESKD: patients, % [2]: 3.9%
Fatal cases of pancreatitis: % [3]: 0.1%
Fatal cases of pancreatitis: n [3]: 2
3-point MACE: hazard ratio vs placebo (eGFR <30 mL/min/1.73 m^2): 0.97
3-point MACE: patients with event/patients analyzed (eGFR <30 mL/min/1.73 m^2): 101/516
Key secondary kidney outcome: hazard ratio vs placebo (eGFR <30 mL/min/1.73 m^2): 1.05
Key secondary kidney outcome: patients with event/patients analyzed (eGFR <30 mL/min/1.73 m^2): 133/516
3P-MACE: % (eGFR < 45 (n = 3000)): (16.6) %
3P-MACE: HR (95% CI) vs placebo (eGFR < 45 (n = 3000)): 1.02 (0.85, 1.21)
3P-MACE: n (eGFR < 45 (n = 3000)): 250
3P-MACE: rate/100 patient-years (eGFR < 45 (n = 3000)): 7.61 per 100 patient-years
Hospitalized heart failure: % (eGFR < 45 (n = 3000)): (8.9) %
Hospitalized heart failure: HR (95% CI) vs placebo (eGFR < 45 (n = 3000)): 0.87 (0.69, 1.10)
Hospitalized heart failure: n (eGFR < 45 (n = 3000)): 135
Hospitalized heart failure: rate/100 patient-years (eGFR < 45 (n = 3000)): 4.13 per 100 patient-years
Key secondary kidney endpoint: % (eGFR < 45 (n = 3000)): (14.7) %
Key secondary kidney endpoint: HR (95% CI) vs placebo (eGFR < 45 (n = 3000)): 0.97 (0.80, 1.17)
Key secondary kidney endpoint: n (eGFR < 45 (n = 3000)): 222
Key secondary kidney endpoint: rate/100 patient-years (eGFR < 45 (n = 3000)): 7.83 per 100 patient-years
Renal death, or sustained ESKD: % (eGFR < 45 (n = 3000)): (8.2) %
Renal death, or sustained ESKD: HR (95% CI) vs placebo (eGFR < 45 (n = 3000)): 0.82 (0.64, 1.04)
Renal death, or sustained ESKD: n (eGFR < 45 (n = 3000)): 124
Renal death, or sustained ESKD: rate/100 patient-years (eGFR < 45 (n = 3000)): 3.78 per 100 patient-years
Renal death, sustained ESKD, or ≥ doubling of se-creatinine: % (eGFR < 45 (n = 3000)): (10.9) %
Renal death, sustained ESKD, or ≥ doubling of se-creatinine: HR (95% CI) vs placebo (eGFR < 45 (n = 3000)): 0.87 (0.70, 1.07)
Renal death, sustained ESKD, or ≥ doubling of se-creatinine: n (eGFR < 45 (n = 3000)): 165
Renal death, sustained ESKD, or ≥ doubling of se-creatinine: rate/100 patient-years (eGFR < 45 (n = 3000)): 5.69 per 100 patient-years
Risk of composite microvascular outcome 1 vs placebo, in words (eGFR decrease 50%): significantly reduced
Risk of composite microvascular outcome 2 and 3 vs placebo, in words (eGFR decrease of 40% and 30%): also significantly reduced
3-point MACE: hazard ratio vs placebo [4]: 1.07
3-point MACE: patients with event/patients analyzed [4]: 149/994
Key secondary kidney outcome: hazard ratio vs placebo [4]: 0.95
Key secondary kidney outcome: patients with event/patients analyzed [4]: 89/994
3P-MACE: % (eGFR ≥ 45 (n = 3979)): (9.3) %
3P-MACE: HR (95% CI) vs placebo (eGFR ≥ 45 (n = 3979)): 1.03 (0.84, 1.26)
3P-MACE: n (eGFR ≥ 45 (n = 3979)): 184
3P-MACE: rate/100 patient-years (eGFR ≥ 45 (n = 3979)): 4.34 per 100 patient-years
Hospitalized heart failure: % (eGFR ≥ 45 (n = 3979)): (3.7) %
Hospitalized heart failure: HR (95% CI) vs placebo (eGFR ≥ 45 (n = 3979)): 0.97 (0.70, 1.34)
Hospitalized heart failure: n (eGFR ≥ 45 (n = 3979)): 74
Hospitalized heart failure: rate/100 patient-years (eGFR ≥ 45 (n = 3979)): 1.73 per 100 patient-years
Key secondary kidney endpoint: % (eGFR ≥ 45 (n = 3979)): (5.3) %
Key secondary kidney endpoint: HR (95% CI) vs placebo (eGFR ≥ 45 (n = 3979)): 1.19 (0.89, 1.58)
Key secondary kidney endpoint: n (eGFR ≥ 45 (n = 3979)): 105
Key secondary kidney endpoint: rate/100 patient-years (eGFR ≥ 45 (n = 3979)): 2.72 per 100 patient-years
Renal death, or sustained ESKD: % (eGFR ≥ 45 (n = 3979)): (0.6) %
Renal death, or sustained ESKD: HR (95% CI) vs placebo (eGFR ≥ 45 (n = 3979)): 1.50 (0.61, 3.67)
Renal death, or sustained ESKD: n (eGFR ≥ 45 (n = 3979)): 12
Renal death, or sustained ESKD: rate/100 patient-years (eGFR ≥ 45 (n = 3979)): 0.28 per 100 patient-years
Renal death, sustained ESKD, or ≥ doubling of se-creatinine: % (eGFR ≥ 45 (n = 3979)): (2.7) %
Renal death, sustained ESKD, or ≥ doubling of se-creatinine: HR (95% CI) vs placebo (eGFR ≥ 45 (n = 3979)): 1.08 (0.73, 1.59)

— patent US20240398817A1, “CARDIO- AND RENOSAFE ANTIDIABETIC THERAPY” (priority 2018, published 2024)
